Source: patent US12245999B2, “Valproic acid for the treatment or prevention of pathological conditions associated with excess fibrin deposition and/or thrombus formation” (Cereno Scientific AB, priority 2014, dated 2025)
Read-outs that look alike come from different tables or passages of the source.

Assays:
PAI-1 [1] = test: In vitro cultured endothelial cells: PAI-1 mRNA / production after VPA treatment; assay type: cell-based
PAI-1 [2] = details: in vivo model in pig (Svennerholm et al., PLoS One 2014); cited from earlier work
PAI-1 [3] = test: In vivo model in mouse: plasma PAI-1; details: in vivo model in mouse (unpublished data)
PAI-1 [4] = test: Intermediate endpoint study in patients with TIA/minor stroke: plasma PAI-1 (ELISA); assay type: in vivo, human; details: 20 patients with TIA/minor stroke, 400 mg enteric-coated tablet once daily at 11 pm for 2 weeks
Procedure: An intermediate endpoint proof-of-concept study is performed in patients with TIA/minor stroke investigated before and after treatment with Valproic acid. Valproic acid is administrated as an enteric-coated tablet with delayed absorption.
(§1) The study comprises 20 patients with TIA/minor stroke. Patients are investigated before and after oral treatment with 400 mg valproic acid once time daily at 11 pm for 2 weeks. Plasma PAI-1 levels and plasma concentrations of valproic acid is followed daily during the study period at the following time-points: 3 am, 6 am, 10 am, 16 pm, 22 pm PAI-1 levels are measured by commercially available ELISA-kits (Coaliza PAI-1, Chromogenix AB) and the plasma concentration of valproic acid an metabolites thereof is analyzed according to clinical routine at the Sahlgrenska University laboratory, Gothenburg, Sweden.

PAI-1 [5] = test: Proof-of-concept cross-over study in healthy subjects: plasma PAI-1 before and after valproic acid; assay type: in vivo, human; details: 500 mg (Ergenyl Retard) twice daily during 14 days, p<0.05
Procedure: (§2) The effects of VPA on PAI-1 were analysed in two different proof-of-concept studies in healthy subjects as well as in patients with manifest atherosclerotic disease. […] PAI-1 plasma levels were measured in the morning at the first day of the study as well as at the end of the treatment period with VPA (see example 2 for details on the PAI-1 analysis).
In the first study, 10 healthy non-smoking white male subjects (with mean BMI of approximately 26), aged 50-70 years were included and treated with valproic acid 500 mg (Ergenyl Retard, Sanofi) twice daily during 14 days.
as §1

PAI-1 [6] = test: Proof-of-concept cross-over study in patients with a history of myocardial infarction: plasma PAI-1 before and after valproic acid; assay type: in vivo, human; details: midmorning, p=0.01; for reduction in circulating plasma PAI-1 levels: 16 male patients with history of myocardial infarction, 500 mg (Ergenyl Retard) twice daily during 28 days on top of ordinary prescription
Procedure: as §2
In the second study, 16 non-smoking white male patients, aged 50-80 years with a history of a myocardial infarction were included. On top of their ordinary prescription (beta-blocker, ACE-inhibitor, statin, aspirin) they were treated with valproic acid 500 mg (Ergenyl Retard, Sanofi), twice daily during 28 days.
as §1

[7] = Clinical outcome study in high-risk patients: recurrent atherothrombotic events; assay type: in vivo, human; details: 400 mg once daily at 11 pm, long-term, expected
Procedure: A clinical outcome study is performed in high-risk patients who have experienced a recent major atherothrombotic cardiovascular event (myocardial infarction or TIA/ischemic stroke) to investigate the preventive effect of valproic acid treatment on the risk for recurrent events. The annual risk for a recurrent atherothrombotic event in the investigated population is estimated to approximately 7%. Patients are randomized in a parallel study design to receive double-blind oral treatment with 400 mg valproic acid (as in Example 2) or placebo once time daily at 11 pm, in addition to optimal conventional treatment. The event rate is monitored by Kaplan-Meyer statistics. The primary efficacy endpoint is the composite measure of either mortality, or non-fatal myocardial infarction or ischemic stroke. The study is event-driven to a total of 180 events.

## CCCC(CCC)C(=O)O [valproic acid, 2-propylpentanoic acid]
PAI-1 [1]
  PAI-1 mRNA levels after VPA treatment: did not show a decrease
PAI-1 [1]; slight but significant
  increase in PAI-1 production: 30%
PAI-1 [2]
  effects on plasma PAI-1: did not detect any effects
PAI-1 [3]
  effects on plasma PAI-1: did not detect any effects
PAI-1 [4]
  plasma PAI-1 levels lowered after the treatment: approximately 30%
PAI-1 [5]; 10 healthy male subjects, mid-morning vs before treatment
  reduction in circulating plasma PAI-1 levels: more than 50%
PAI-1 [5]; healthy male subjects, mid-morning, 22.2 ng/ml before treatment
  circulating plasma PAI-1 level after treatment: 10.8 ng/mL
PAI-1 [6]
  reduction in circulating plasma PAI-1 levels: 45%
PAI-1 [6]; listed as VPA
  reduction in circulating plasma PAI-1 levels: about 45%
PAI-1 [6]; patients with history of myocardial infarction, 500 mg (Ergenyl Retard) twice daily during 28 days, 19.6 ng/ml before treatment
  circulating plasma PAI-1 level after treatment: 11 ng/mL
[7]; in addition to conventional therapy
  reduction of risk for recurrent atherothrombotic event: approximately 30%
[7]; estimated approximately 7% without treatment
  annual absolute event rate: approximately 5%
